Laboratory results reported in patent publication US9233961B2, “Compounds and compositions for the treatment of parasitic diseases” (Novartis AG, priority 2013, dated 2016).
Like-named read-outs stand apart in the source and are kept apart here.

Tests used:
[1] = system: Trypanosoma brucei Lister 427 strain bloodstream form; test: Assay for proliferation of kinetoplastid parasite Trypanosoma brucei; assay type: cell-based; conditions: read-out: T. brucei EC50
Source text: Assay for Proliferation of Kinetoplastid Parasite Trypanosoma brucei.
The proliferation is quantified by the addition of Cell Titer Glo (Promega®) a luminescent cell viability assay that measures the number of viable cells in culture based on the quantification of cellular ATP amount, which is an indicator of metabolically active cells.
The following assay illustrates the invention without in any way limiting the scope of the invention. This parasite proliferation assay measures the increase in parasite growth using an assay that measures ATP activity, Cell Titer Glo®.
Trypanosoma brucei Lister 427 strain is grown in HMI-9 Trypanosome media for T. brucei bloodstream form. 30 μl of HMI-9 media is dispensed into 384 well assay plates. 200 nl of compounds of the invention (in DMSO), including anti-trypanosome controls (Pentamidine and suramin), are then transferred into the assay plates, as well as DMSO alone to serve as a negative control for inhibition. Then 25 μl of a suspension of T. brucei culture in HMI-9 media is dispensed into the assay plates. The final concentration of parasites in culture corresponds to 1.7% of 0.5 uM ATP activity with Cell Titer Glo® in HMI-9 media. The plates are placed in a 37° C. incubator for 48 hours in an atmospheric environment containing 5% CO2. 40 μl of Cell Titer Glo® is dispensed into the plates. The plates are then read for luminescence. The percentage inhibition of 50%, EC50, is calculated for each compound.

[2] = system: L. donovani HU3 strain in mouse peritoneal macrophages; test: Assay for proliferation of Leishmania parasites in mouse peritoneal macrophages; assay type: cell-based, Leishmania donovani; conditions: Leishmania donovani, Peritoneal macrophage
How it was run: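 EC50 derives from counting SYBR Green-stained parasite nuclei by high-content imaging after 5 days' compound exposure. Host cells were uninfected BALB/c peritoneal macrophages, infected for 24 h before dosing with spleen-derived L. donovani HU3 parasites from mice infected 9–11 weeks.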

[3] = system: Leishmania donovani axenic amastigote parasites; test: Leishmania donovani axenic amastigote proliferation assay; assay type: cell-based; conditions: read-out: L. donovani amastigotes EC50
How it was run: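 EC50 values come from CellTiter-Glo luminescence after 2-day compound exposure of axenic amastigotes (9600 per well) at 37 °C, 5% CO2. Medium: RPMI 1640, 20% heat-inactivated FBS, folic acid, adenosine, D-glucose, 25 mM MES, adjusted to pH 5.5.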

[4] = Lister 427 bloodstream form, 48 hours
[5] = read-out: L. donavani Macrophage EC50

N#Cc1ccc(-c2cnc3nc(-c4cc(NC(=O)c5ccco5)ccc4Cl)[nH]c3c2)cc1 [Compound 20]
EC50 [1, 4]: 0.054 µM | EC50 [2, 5]: 1.78 µM | EC50 ([3]; axenic amastigotes in vitro): 0.239 µM

Cc1csc(C(=O)Nc2ccc(Cl)c(-c3nc4ncc(C)cc4[nH]3)c2)c1 [Compound 209]
EC50 [1, 4]: 1.41 µM | EC50 [2, 5]: 10.4 µM | EC50 ([3]; axenic amastigotes in vitro): 7.9 µM

Cc1cnc2nc(-c3cc(NC(=O)c4nc(C)oc4C)ccc3Cl)[nH]c2c1 [Compound 179]
EC50 [1, 4]: 5 µM | EC50 [2, 5]: > 50 µM | EC50 ([3]; axenic amastigotes in vitro): > 25 µM

Cc1cnc2nc(-c3cc(NC(=O)NC(C)C)ccc3Cl)[nH]c2c1 [Compound 249]
EC50 [1, 4]: 14.1 µM | EC50 [2, 5]: > 30 µM | EC50 ([3]; axenic amastigotes in vitro): > 25 µM

Cc1cnc2nc(-c3cc(NC(=O)c4cccc(S(C)(=O)=O)c4)ccc3Cl)[nH]c2c1 [Compound 140]
EC50 [1, 4]: 6.8 µM | EC50 [2, 5]: > 50 µM | EC50 ([3]; axenic amastigotes in vitro): > 25 µM

Cc1cnc2nc(-c3cc(NC(=O)Cc4ccc(C(F)(F)F)cc4)ccc3Cl)[nH]c2c1 [Compound 96]
EC50 [1, 4]: 8.9 µM | EC50 [2, 5]: 20.7 µM | EC50 ([3]; axenic amastigotes in vitro): > 25 µM

COc1ccccc1C(=O)Nc1ccc(Cl)c(-c2nc3ncc(C)cc3[nH]2)c1 [Compound 108]
EC50 [1, 4]: 8.3 µM | EC50 [2, 5]: 16.3 µM | EC50 ([3]; axenic amastigotes in vitro): > 25 µM

Cc1cnc2nc(-c3cc(NC(=O)c4ccnn4C)ccc3Cl)[nH]c2c1 [Compound 213]
EC50 [1, 4]: > 25 µM | EC50 [2, 5]: > 48 µM | EC50 ([3]; axenic amastigotes in vitro): > 25 µM

Cc1cnc2nc(-c3cc(NS(=O)(=O)c4cccs4)ccc3Cl)[nH]c2c1 [Compound 251]
EC50 [1, 4]: > 18.2 µM | EC50 [2, 5]: > 50 µM | EC50 ([3]; axenic amastigotes in vitro): > 25 µM

Cc1cnc2nc(-c3cc(NC(=O)C(F)(F)c4ccccc4)ccc3Cl)[nH]c2c1 [Compound 164]
EC50 [1, 4]: 12.6 µM | EC50 [2, 5]: 23.4 µM | EC50 ([3]; axenic amastigotes in vitro): > 25 µM

Cc1cnc2nc(-c3cc(NC(=O)Cn4cnnn4)ccc3Cl)[nH]c2c1 [Compound 170]
EC50 [1, 4]: > 25 µM | EC50 [2, 5]: > 50 µM | EC50 ([3]; axenic amastigotes in vitro): > 25 µM

Cc1cnc2nc(-c3cc(NC(=O)c4cccnc4)ccc3Cl)[nH]c2c1 [Compound 208]
EC50 [1, 4]: 2.48 µM | EC50 [2, 5]: > 32.7 µM | EC50 ([3]; axenic amastigotes in vitro): 8.7 µM

COc1ccc(-c2cnc3nc(-c4cc(NC(=O)c5ccco5)ccc4Cl)[nH]c3c2)cc1S(=O)(=O)N1CCCC1 [Compound 49]
EC50 [1, 4]: 0.0067 µM | EC50 [2, 5]: 1.05 µM | EC50 ([3]; axenic amastigotes in vitro): 0.44 µM

O=C(Nc1ccc(Cl)c(-c2nc3ncc(-c4ccnc(F)c4)cc3[nH]2)c1)c1ccco1 [Compound 51]
EC50 [1, 4]: 0.0193 µM | EC50 [2, 5]: 0.56 µM | EC50 ([3]; axenic amastigotes in vitro): 0.175 µM

Cc1cnc2nc(-c3cc(NS(=O)(=O)CC(C)C)ccc3Cl)[nH]c2c1 [Compound 255]
EC50 [1, 4]: > 25 µM | EC50 [2, 5]: > 50 µM | EC50 ([3]; axenic amastigotes in vitro): > 25 µM

N#Cc1cnc2nc(-c3cc(NC(=O)c4ccco4)ccc3Cl)[nH]c2c1 [Example 286, N-(4-chloro-3-{6-cyano-1H-imidazo[4,5-b]pyridin-2-yl}phenyl)furan-2-carboxamide]
EC50 [1, 4]: 0.164 µM | EC50 [2, 5]: 7.1 µM | EC50 ([3]; axenic amastigotes in vitro): 0.61 µM

Cc1ccc(Nc2ccc(Cl)c(-c3nc4ncc(C)cc4[nH]3)c2)nc1 [Compound 262]
EC50 [1, 4]: > 22.4 µM | EC50 [2, 5]: 13.5 µM | EC50 ([3]; axenic amastigotes in vitro): > 25 µM

COc1cc(-c2cnc3nc(-c4cc(NC(=O)c5ccco5)ccc4Cl)[nH]c3c2)ccc1NC(=O)OC(C)(C)C [Compound 34]
EC50 [1, 4]: 0.105 µM | EC50 [2, 5]: 1.79 µM | EC50 ([3]; axenic amastigotes in vitro): 0.6 µM

Cc1cnc2nc(-c3cc(NC(=O)N4CCCC4)ccc3Cl)[nH]c2c1 [Compound 245]
EC50 [1, 4]: 0.241 µM | EC50 [2, 5]: 18.8 µM | EC50 ([3]; axenic amastigotes in vitro): 1.77 µM

Cc1cnc2nc(-c3cc(NC(=O)c4ccc(C(F)(F)F)cn4)ccc3Cl)[nH]c2c1 [Compound 115]
EC50 [1, 4]: 2.6 µM | EC50 [2, 5]: 25.3 µM | EC50 ([3]; axenic amastigotes in vitro): 16.8 µM

Cc1cnc2nc(-c3cc(NC(=O)Cc4ccc(OC(F)(F)F)cc4)ccc3Cl)[nH]c2c1 [Compound 121]
EC50 [1, 4]: > 17.3 µM | EC50 [2, 5]: > 21.2 µM | EC50 ([3]; axenic amastigotes in vitro): > 25 µM

Cc1cnc2nc(-c3cc(NS(=O)(=O)N4CCCCC4)ccc3Cl)[nH]c2c1 [Compound 254]
EC50 [1, 4]: > 25 µM | EC50 [2, 5]: > 50 µM | EC50 ([3]; axenic amastigotes in vitro): > 25 µM

Cc1cnc2nc(-c3cc(NC(=O)Cc4ncccn4)ccc3Cl)[nH]c2c1 [Compound 145]
EC50 [1, 4]: 16.1 µM | EC50 [2, 5]: > 50 µM | EC50 ([3]; axenic amastigotes in vitro): > 25 µM

Cc1cnc2nc(-c3cc(NC(=O)CCCN(C)C)ccc3Cl)[nH]c2c1 [Compound 159]
EC50 [1, 4]: > 12.2 µM | EC50 [2, 5]: > 50 µM | EC50 ([3]; axenic amastigotes in vitro): > 25 µM

Cc1cnc2nc(-c3cc(NS(=O)(=O)Cc4ccc(C(F)(F)F)cc4)ccc3Cl)[nH]c2c1 [Compound 252]
EC50 [1, 4]: > 25 µM | EC50 [2, 5]: > 50 µM | EC50 ([3]; axenic amastigotes in vitro): > 25 µM

Cc1cnc2nc(-c3cc(Nc4cccc5c4CCN(S(C)(=O)=O)C5)ccc3Cl)[nH]c2c1 [Compound 261]
EC50 [1, 4]: 15.9 µM | EC50 [2, 5]: > 50 µM | EC50 ([3]; axenic amastigotes in vitro): > 25 µM

Cc1cnc2nc(-c3cc(NC(=O)c4cncn4C)ccc3Cl)[nH]c2c1 [Compound 207]
EC50 [1, 4]: > 25 µM | EC50 [2, 5]: > 50 µM | EC50 ([3]; axenic amastigotes in vitro): > 25 µM

Cc1cnc2nc(-c3cc(Nc4ccc(-n5cncn5)nc4)ccc3Cl)[nH]c2c1 [Compound 258]
EC50 [1, 4]: > 15.4 µM | EC50 [2, 5]: > 50 µM | EC50 ([3]; axenic amastigotes in vitro): > 25 µM

Cc1cnc2nc(-c3cc(NC(=O)C(C)(C)NC(=O)OC(C)(C)C)ccc3Cl)[nH]c2c1 [Compound 111]
EC50 [1, 4]: > 13.6 µM | EC50 [2, 5]: > 50 µM | EC50 ([3]; axenic amastigotes in vitro): > 25 µM

Cc1cnc2nc(-c3cc(NC(=O)c4nnc(C)o4)ccc3Cl)[nH]c2c1 [Compound 106]
EC50 [1, 4]: 13.3 µM | EC50 [2, 5]: > 50 µM | EC50 ([3]; axenic amastigotes in vitro): > 25 µM

Cc1cnc2nc(-c3cc(NC(=O)OCCF)ccc3Cl)[nH]c2c1 [Example 214, 2-Fluoroethyl N-(4-chloro-3-{6-methyl-1H-imidazo[4,5-b]pyridin-2-yl}phenyl)carbamate]
EC50 ([1]; 48 h): 2.25 µM | EC50 [2, 5]: 27.5 µM | EC50 [3]: 8.4 µM

Cc1cnc2nc(-c3cc(NC(=O)C(C)(C)N)ccc3Cl)[nH]c2c1 [Compound 194]
EC50 [1, 4]: > 11.7 µM | EC50 [2, 5]: > 50 µM | EC50 ([3]; axenic amastigotes in vitro): > 25 µM

Cc1cnc2nc(-c3cc(NC(=O)c4ccncc4)ccc3Cl)[nH]c2c1 [Compound 212]
EC50 [1, 4]: 2.65 µM | EC50 [2, 5]: 22.5 µM | EC50 ([3]; axenic amastigotes in vitro): 6.6 µM

Cc1cnc2nc(-c3cc(NC(=O)C4CC(F)(F)C4)ccc3Cl)[nH]c2c1 [Compound 117]
EC50 [1, 4]: > 13.5 µM | EC50 [2, 5]: > 50 µM | EC50 ([3]; axenic amastigotes in vitro): > 25 µM

Cc1cnc2nc(-c3cc(NC(=O)CCO)ccc3Cl)[nH]c2c1 [Compound 143]
EC50 [1, 4]: > 14.4 µM | EC50 [2, 5]: > 50 µM | EC50 ([3]; axenic amastigotes in vitro): > 25 µM

Cc1cnc2nc(-c3cc(NC(=O)C(c4ccccc4)C(C)C)ccc3Cl)[nH]c2c1 (stereo not drawn) [Compound 160]
EC50 [1, 4]: 12.4 µM | EC50 [2, 5]: 20.3 µM | EC50 ([3]; axenic amastigotes in vitro): > 24.6 µM

COC(=O)Nc1ccc(-c2cnc3nc(-c4cc(NC(=O)c5ccco5)ccc4Cl)oc3c2)cc1 [Compound 417]
EC50 [1, 4]: 0.056 µM | EC50 ([2]; read-out: L. donavani Macrophage EC50 (μM)): 0.49 µM | EC50 ([3]; axenic amastigotes in vitro): 0.212 µM

Cc1cnc2nc(-c3cc(NC(=O)c4ccc(N5CCOCC5)cc4)ccc3Cl)[nH]c2c1 [Compound 109]
EC50 [1, 4]: 15.1 µM | EC50 [2, 5]: > 19.1 µM | EC50 ([3]; axenic amastigotes in vitro): > 24.4 µM

Cc1cnc2nc(-c3cc(NC(=O)c4noc(C)n4)ccc3Cl)[nH]c2c1 [Compound 161]
EC50 [1, 4]: 9.6 µM | EC50 [2, 5]: > 50 µM | EC50 ([3]; axenic amastigotes in vitro): > 25 µM
